Measured values from patent US20060020036A1, “Methods and compositions to promote bone homestasis” (priority 2004, published 2006).
“Also recorded” adds a separate entry of the source.

Each molecule was assayed against T1, NR1H2 (Homo sapiens, UniProt P55055) (assay: AP assay: MPCs infected with Ad-NR1H2 and treated with ligand). Details: ligand at different concentrations.
T1 construct: amplification of the complete open reading frame from ATG start codon to the stop codon of drugable genes; expressed in transfected cells; host or cells: primary human mesenchymal progenitor cells (MPCs), transduced with Ad5-NR1H2 and Ad-hCAR
T1 sequence (P55055 1-460): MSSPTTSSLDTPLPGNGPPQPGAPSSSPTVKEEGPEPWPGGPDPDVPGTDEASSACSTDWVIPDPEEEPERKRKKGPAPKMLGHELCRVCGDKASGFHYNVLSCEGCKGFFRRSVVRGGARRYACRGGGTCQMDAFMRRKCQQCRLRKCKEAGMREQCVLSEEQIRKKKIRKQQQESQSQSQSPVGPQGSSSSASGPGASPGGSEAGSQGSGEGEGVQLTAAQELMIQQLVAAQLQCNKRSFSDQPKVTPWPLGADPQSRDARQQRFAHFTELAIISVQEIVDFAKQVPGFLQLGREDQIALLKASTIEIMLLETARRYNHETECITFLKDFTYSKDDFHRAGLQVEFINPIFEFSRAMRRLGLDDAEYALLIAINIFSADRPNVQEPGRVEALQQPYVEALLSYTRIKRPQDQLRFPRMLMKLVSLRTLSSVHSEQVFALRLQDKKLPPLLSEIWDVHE
Assay type: cell-based
Procedure: MPCs are seeded on day0 at 1000 cells per well of a 384 well plate and co-infected the next day using AdC51-hCAR (MOI 250) and different MOIs of Ad5-NR1H3 (MOI 2000, 666). On day 1, 5 concentrations (1E-9M, 1E-8M, 1E-7M, 1E-6M, 1E-5M) of the compound T0901317 (Cayman Chemical, Michigan, USA, Cat. No. 71810) with fixed vehicle concentration (DMSO at final concentration of 0.1%) are added to the wells. After 6 days, medium is removed and replaced with fresh medium containing the same concentrations of the compound T0901317. Readouts of AP activity are performed at several time points after the start of the experiment, typically after 7, 10 and 13 days. Up-regulation of alkaline phosphatase activity is read as follows: medium is removed from the monolayers, 15 μl MUP is added to each well, the plates are incubated for 15 min at 37° C. and then read for AP activity using a fluorescence plate reader (Fluostar, BMG).
(§1) MPCs are seeded on day 0 at 1000 cells per well of a 384 well plate and co-infected the next day using AdC51-hCAR (MOI 250) and different MOIs of Ad5-NR1H2 (MOI 2000, 666). […] Readouts of AP activity are performed at several time points after the start of the experiment, typically after 7, 10 and 13 days. Up-regulation of alkaline phosphatase activity is read as follows: medium is removed from the monolayers, 15 μL MUP is added to each well, the plates are incubated for 15 min at 37° C. and then read for AP activity using a fluorescence plate reader (Fluostar, BMG).
as §1, with “day0” for “day 0”, “AdC5′-hCAR” for “AdC51-hCAR”, “Ad5-NR1H2 or Ad-NR1H3” for “Ad5-NR1H2”, “6000).” for “666).”, “μl” for “μL”

SMILES | up-regulation of endogenous alkaline phosphatase (AP) activity, dose-response
CC(=O)Oc1ccc2c(c1)[C@@]1(C)CCC[C@](C)(C(=O)OC(=O)[C@@]3(C)CCC[C@]4(C)c5cc(OC(C)=O)ccc5CC[C@@H]34)[C@@H]1CC2 [APD, acetyl podocarpic dimer] | dose-response relation is observed; also recorded: AP activity is up-regulated; also recorded: Dose-dependent up-regulation of AP activity
O=C(O)Cc1cccc(OCCCN(Cc2cccc(C(F)(F)F)c2Cl)CC(c2ccccc2)c2ccccc2)c1 [GW3965, 2-(3-(3-(N-(2-chloro-3-(trifluoromethyl)benzyl)-N-(2,2-diphenylethyl)amino)propoxy)phenyl)acetic acid] | dose-response relation is observed; also recorded: AP activity is up-regulated; also recorded: Dose-dependent up-regulation of AP activity
O=S(=O)(c1ccccc1)N(CC(F)(F)F)c1ccc(C(O)(C(F)(F)F)C(F)(F)F)cc1 [T0901317, N-(2,2,2-trifluoroethyl)-N-[4-[2,2,2-trifluoro-1-hydroxy-1-(trifluoromethyl)ethyl]phenyl]-benzenesulfonamide] | dose-response relation is observed; also recorded: AP activity is up-regulated; also recorded: Dose-dependent up-regulation of AP activity
